The results in this text go back to US9102932B2, “Orthogonal translation components for the in vivo incorporation of unnatural amino acids” (The Scripps Research Institute, priority 2004, dated 2015).

For series [1], the system named is Z domain protein gene with amber codon at seventh position. In words: Expression of amber mutant Z domain protein with unnatural amino acid, SDS-PAGE and MALDI-TOF MS. It counts as cell-based, E. coli. On the procedure:
To confirm that the observed phenotype is caused by the site-specific incorporation of p-ethylthiocarbonyl-L-phenylalanine by the mutRNACUA-mutTyrRS pair, an amber codon was substituted for the seventh position (Tyr) in the gene encoding the Z domain protein (Nilsson et al., Protein Eng. 1987, 1, 107-113) fused to a C-terminal His6 tag. Protein was expressed in the presence or absence of 1 mM p-ethylthiocarbonyl-L-phenylalanine and purified by Ni-NTA chromatography. […]
Additional evidence for the site specific incorporation of p-ethylthiocarbonyl-L-phenylalanine was obtained by matrix-assisted laser desorption/ionization time-of-flight mass spectrometry (MALDI-TOF MS). In addition to the observation of an experimental average mass of 8006 Da for the intact Tyr p-ethylthiocarbonyl-L-phenylalanine protein (MTheoretical=8002 Da, see, FIG. 16), a minor peak corresponding to the mutant protein without the first methionine moiety in acetylated form (MExperimental=7913 Da vs. MTheoretical=7913 Da) and a major peak corresponding to the mutant protein without the first methionine moiety (MExperimental=7871 Da vs. MTheoretical=7871 Da) were also detected (FIG. 16). Another major peak of 7828 Da was present that corresponds to Z domain protein containing a free carboxylic acid group instead of a thioester moiety at position 7, which has a calculated mass of 7827 Da in its protonated form. […]

A short description of series [2]: Photodecaging of O-(2-nitrobenzyl)-L-tyrosine by irradiation at 365 nm, LC/MS. Format: physicochemical. On the procedure:
FIG. 9 provides concentration curve assays illustrating the experimentally observed photodecaging (photoactivation) of the caged tyrosine molecule O-(2-nitrobenzyl)-L-tyrosine. Photodecaging of O-(2-nitrobenzyl)-L-tyrosine was illustrated by irradiation of a 0.2 mM amino acid solution in water using a handheld UV lamp (365 nm at 10 mm distance). Aliquots were taken at specific time points and analyzed by LC/MS. The concentrations of O-(2-nitrobenzyl)-L-tyrosine (squares) and the corresponding decaged species (circles) are shown.
Irradiation of O-(2-nitrobenzyl)-L-tyrosine (synthesized from L-tyrosine as described in Miller et al., Neuron 1998, 20, 619) at 365 nm induces cleavage of the benzylic CO-bond and rapid formation of the decaged amino acid (t1/2=4 min, see supporting information), as illustrated schematically in FIG. 8.
Photodecaging of O-(2-nitrobenzyl)-L-tyrosine can be experimentally observed, as illustrated in the experimental results shown in FIG. 9. As shown in this figure, the photodecaging of O-(2-nitrobenzyl)-L-tyrosine was studied by irradiation of a 0.2 mM solution in water (one well of a six-well plate) using a handheld UV lamp (365 nm at 10 mm distance). Aliquots were taken at specific time points and analyzed by LC/MS. 50% decaging was achieved after approximately four minutes.

In series [3] the test system is human superoxide dismutase bearing amber codon at position 33 (hSOD-33TAG-His6). Kind of series: Expression of hSOD-33TAG-His6 in yeast with mutant E. coli leucyl-tRNA synthetases, SDS-PAGE. Format: cell-based. Particulars: yeast host cells. The source says: To increase hydrolytic activity towards leucine, residues T252 and V338 in the E. coli synthetase editing domain were exchanged to alanine by Quikchange mutagenesis in order to enlarge the binding pocket (see, FIG. 6A). […] High selectivity of this mutant was further confirmed by MALDI TOF MS of hSOD-33TAG-His6.
To evolve a more efficient oNBS translation system, the selected clone 3H11 synthetase was diversified by error prone PCR, again using three different mutagenicities, to introduce one, two or five mutations per gene, yielding an overall diversity of 1×10^7 clones. The positions in the leucyl-tRNA-synthetase enzyme that were targeted for randomization were M40, L41, Y499, Y527 and H537. The protocols used herein follow the general methodologies described in the art, e.g., Wu et al., Journal of the American Chemical Society 126:14306-14307 (2004); and International Application No. PCT/US 2005/034002, filed Sep. 21, 2005, by Deiters et al.
Sequencing of the G2-6 clone identified five additional mutations throughout the enzyme in comparison to the initial 3H11 synthetase starting material (positions S31G, T247A, T248S, M617I and V673A). Additional mutations (caused during library construction) found in all clones throughout the library were also observed as follows: H67R, N196T, R262A and S497C. […]

With `CC(=O)CC(=O)c1ccc(C[C@H](N)C(=O)O)cc1` [p-(3-oxobutanoyl)-L-phenylalanine], the “Fidelity for the incorporation” value in series [1] (MALDI-TOF MS, signal-to-noise ratio >400, evolved mutRNACUA^Tyr-mutTyrRS pair) is given as greater than 99%. In series [1] (Z domain protein, seventh position, 1 mM unnatural amino acid, SDS-PAGE), the “Incorporation efficiency compared to tyrosine” value is reported as “around 30%”. The molecule `N[C@@H](Cc1ccc(OCc2ccccc2[N+](=O)[O-])cc1)C(=O)O` [O-(2-nitrobenzyl)-L-tyrosine] had a Decaging in series [2] (after approximately four minutes, 0.2 mM solution in water, handheld UV lamp 365 nm at 10 mm distance) of 50%. Besides, in series [2] (solution in water under UV irradiation (365 nm), irradiation at 365 nm, read-out: t1/2 of formation of the decaged amino acid), the half-life at 0.2 mM came out at 4 min.

B1: clone 3H11 (protein)
chain: MEEQYRPEEIESKVQLHWDEKRTFEVTEDESKEKYYCLSWSPYPSGRLHMGHVRNYTIGDVIARYQRMLGKNVLQPIGWDAFGLPAEGAAVKNNTAPAPWTYDNIAYMKNQLKMLGFGYDWSRELATCTPEYYRWEQKFFTELYKKGLVYKKTSAVNWCPNDQTVLANEQVIDGCCWRCDTKVERKEIPQWFIKITAYADELLNDLDKLDHWPDTVKTMQRNWIGRSEGVEITFNVNDYDNTLTVYTTRPDTFMGCTYLAVAAGHPLAQKAAENNPELAAFIDECRNTKVAEAEMATMEKKGVDTGFKAVHPLTGEEIPVWAANFVLMEYGTGAVMAVPGHDQRDYEFASKYGLNIKPVILAADGSEPDLSQQALTEKGVLFNSGEFNGLDHEAAFNAIADKLTAMGVGERKVNYRLRDWGVSRQRYWGAPIPMVTLEDGTVMPTPDDQLPVILPEDVVMDGITSPIKADPEWAKTTVNGMPALRETDTFDTFMESCWIYARYTCPQYKEGMLDSEAANYWLPVDIAIGGIEHAIMGLLYFRFFHKLMRDAGMVNSDEPAKQLLCQGMVLADAFYYVGENGERNWVSPVDAIVERDEKGRIVKAKDAAGHELVYTGMSKMSKSKNNGIDPQVMVERYGADTVRLFMMFASPADMTLEWQESGVEGANRFLKRVWKLVYEHTAKGDVAALNVDALTENQKALRRDVHKTIAKVTDDIGRRQTFNTAIAAIMELMNKLAKAPTDGEQDRALMQEALLAVVRMLNPFTPHICFTLWQELKGEGDIDNAPWPVADEKAMVEDSTLVVVQVNGKVRAKITVPVDATEEQVRERAGQEHLVAKYLDGVTVRKVIYVPGKLLNLVVG
modifications: o-nitrobenzylcysteine aminoacyl-tRNA synthetase
Turning to B1, the “oNBS incorporation efficiency compared to an oNBC amino acid (in words)” value in series [3] was “twofold reduced efficiency”.
